Source: US20140004192A1, “PHARMACEUTICAL FORMULATIONS OF INDIBULIN AND USES THEREOF” (Ziopharm Oncology, Inc., priority 2012, published 2014)
Where two headings read alike, the source gives them in different places.

Tests used:
[1] = Rat pharmacokinetic study, second study (dose response); assay type: in vivo, rats; conditions: plasma, po; for AUC(0-t) / Cmax / Tmax: Second Study; for concentration at 0 h / concentration at 0.5 h / concentration at 1 h / concentration at 2 h / concentration at 4 h / concentration at 6 h / concentration at 10 h: second study, read-out: plasma indibulin
Description: The second study was designed to determine the dose response of indibulin plasma concentration with the 10% A SDD formulation. In general, 10% A SDD was administered p.o. at 10, 15 and 20 mg/kg and plasma indibulin concentrations were determined at several time points.
All rats used in the second study were fasted 12 hours prior to dose, and food was returned 4 hours post dose. Indibulin in crystalline form was suspended in 0.5% Methocel A at 10 mg/kg, 15 mg/kg and 20 mg/kg by vortexing and sonicating. The indibulin SDD formulations were made by combining 10% active indibulin SDD at 10 mg/kg, 15 mg/kg and 20 mg/kg in a mortar with 0.5% Methocel A and using a pestle to gradually mix in to solution. There were six rats per group, all animals were weighed and the dose volume calculated so that each rat received the test article orally at a volume of 10 mL/kg. The first three rats in each group were bled at […], 2, and 6 hours post dose; the remaining three rats in each group were bled at 1, 4, and 10 hours post dose. For blood collection at all time points, all animals were anesthetized with an inhalation of 4% isoflurane and 1.5% oxygen; once it was determined that the animal was adequately anesthetized (no reaction to physical stimulation) using a capillary tube the orbital venous plexus was punctured and a volume of 1 mL of blood was collected in to a sodium heparin tube. Once the blood was collected the sodium heparin tube was inverted ten times, and placed on ice until centrifuged for 10 minutes at 2510 rpm. The plasma was decanted into labeled Eppendorfs and stored at −80° C. until analyzed by HPLC with MS/MS Detection. All data were acquired using Applied Biosystems/MDS-Sciex Analyst Version 1.5; processed, and reported using Watson Version 7.3.0.01TM, Thermo Fisher Scientific, Inc.; and are summarized in FIG. 13 and FIG. 14.

[2] = Rat pharmacokinetic study, first study; assay type: in vivo, rats (Sprague Dawley, male); conditions: plasma; for bioavailability: ratio of dose-normalized AUC0-10 oral/IV
Description: In the first study, the crystalline indibulin, 10% A and 25% A SDDs were administered p.o. at 10 and 15 mg/kg to rats (Sprague Dawley, male) and plasma concentrations of indibulin were determined at several time points.
In particular, all rats used in this study were fasted 12 hours prior to dose, and food was returned 4 hours post dose. 10% A and 25% A indibulin HPMCAS SDD formulations (as prepared in Example 1(a)) were used in this study. Indibulin in crystalline form was suspended in 0.5% Methocel A at 10 mg/kg, and 15 mg/kg by vortexing and sonicating. The indibulin SDD formulations were made by combining 10% active indibulin SDD at 10 mg/kg and 15 mg/kg, 25% active indibulin SDD at 10 mg/kg and 15 mg/kg using a mortar with 0.5% Methocel A and using a pestle to gradually mix in to solution. There were six rats per group, all animals were weighed and dose volume calculated so that each rat received test article orally at a volume of 10 mL/kg. The first three rats in each group were bled at 0.5, 2, and 6 hours post dose; the remaining three rats in each group were bled at 1, 4, and 10 hours post dose. For blood collection at all time points all animals were anesthetized with an inhalation of 4% isoflurane and 1.5% oxygen, once it was determined that the animal was adequately anesthetized (no reaction to physical stimulation) using a capillary tube the orbital venous plexus was punctured and a volume of 1 mL of blood was collected in to a sodium heparin tube. Once the blood was collected the sodium heparin tube was inverted ten times, and placed on ice until centrifuged for 10 minutes at 2510 rpm. The plasma was decanted in to labeled Eppendorfs and stored at −80° C. until analyzed by HPLC with MS/MS Detection. All data were acquired using Applied Biosystems/MDS-Sciex Analyst Version 1.5, processed; reported using Watson Version 7.3.0.01TM, Thermo Fisher Scientific, Inc.; and are summarized in FIGS. 12 and 14 and Tables 16, 17, and 18. Table 17 is summary of maximum plasma concentrations of indibulin (Cmax), time for maximum plasma concentration to occur (tmax), and plasma area under the curve values (AUC0-t). […] Table 18 also includes comparative data for a solutol/propylene glycol indibulin formulation, administered by IV and orally.

[3] = male, Sprague Dawley, po, First Study, rat p.o. 15 mg/kg (90 mg/m^2)

## O=C(Nc1ccncc1)C(=O)c1cn(Cc2ccc(Cl)cc2)c2ccccc12 [Bulk Crystalline Drug, indibulin]
[1]; rat p.o. 10 mg/kg (60 mg/m^2)
  AUC(0-t): 0.048 µg·h/mL
  Cmax: 0.0086 µg/mL
  Tmax: 2 h
[1]; rat p.o. 15 mg/kg (90 mg/m^2)
  AUC(0-t): 0.146 µg·h/mL
  Cmax: 0.024 µg/mL
  Tmax: 4 h
[1]; rat p.o. 20 mg/kg (120 mg/m^2)
  AUC(0-t): 0.11 µg·h/mL
  Cmax: 0.021 µg/mL
  Tmax: 4 h
[1]; rat p.o. 10 mg/kg
  concentration at 0 h: 0 µg/mL
  concentration at 0.5 h: 0.002 µg/mL
  concentration at 1 h: 0.004 µg/mL
  concentration at 2 h: 0.009 µg/mL
  concentration at 4 h: 0.004 µg/mL
  concentration at 6 h: 0.007 µg/mL
  concentration at 10 h: 0.002 µg/mL
[1]; rat p.o. 15 mg/kg
  concentration at 0 h: 0 µg/mL
  concentration at 0.5 h: 0.01 µg/mL
  concentration at 1 h: 0.017 µg/mL
  concentration at 2 h: 0.017 µg/mL
  concentration at 4 h: 0.024 µg/mL
  concentration at 6 h: 0.007 µg/mL
  concentration at 10 h: 0.019 µg/mL
[1]; rat p.o. 20 mg/kg
  concentration at 0 h: 0 µg/mL
  concentration at 0.5 h: 0.009 µg/mL
  concentration at 1 h: 0.012 µg/mL
  concentration at 2 h: 0.014 µg/mL
  concentration at 4 h: 0.021 µg/mL
  concentration at 6 h: 0.007 µg/mL
  concentration at 10 h: 0.006 µg/mL
[2]; Sprague Dawley, rat, Male S-D Rats, Oral (Gavage) 10 mg/kg
  Tmax: 2 h
[2]; Sprague Dawley, rat, Male S-D Rats, Oral (Gavage) 15 mg/kg, read-out: F (%)
  bioavailability: 1.5%
[2]; Sprague Dawley, rat, Male S-D Rats, Oral (Gavage) 15 mg/kg, read-out: Terminal t1/2 (converted)
  half-life: 5.9 h
[2]; Sprague-Dawley, rat, Male S-D Rats, Oral (Gavage) 10 mg/kg, read-out: F (%), absolute oral bioavailability
  bioavailability: 2.4%
[2]; [3]
  Cmax: 0.006 µg/mL
  Tmax: 1 h
[2]; male, Sprague Dawley, rat, po, 10 mg/kg, Male S-D Rats, Oral (Gavage) 10 mg/kg
  Cmax: 0.018 µg/mL
[2]; male, Sprague Dawley, rat, po, 10 mg/kg, Male S-D Rats, Oral (Gavage) 10 mg/kg, read-out: AUC0-10
  AUC(0-t): 0.0636 µg·h/mL
[2]; male, Sprague Dawley, rat, po, 15 mg/kg, First Study, rat p.o. 15 mg/kg (90 mg/m^2), read-out: AUC0-t
  AUC(0-t): 0.031 µg·h/mL
[2]; male, Sprague Dawley, rat, po, 15 mg/kg, Male S-D Rats, Oral (Gavage) 15 mg/kg
  Cmax: 0.0165 µg/mL
[2]; male, Sprague Dawley, rat, po, 15 mg/kg, Male S-D Rats, Oral (Gavage) 15 mg/kg, read-out: AUC0-10
  AUC(0-t): 0.0566 µg·h/mL
[2]; male, Sprague-Dawley, po, First Study, rat p.o. 10 mg/kg (60 mg/m^2)
  Tmax: 2 h
[2]; male, Sprague-Dawley, rat, po, 10 mg/kg, First Study, rat p.o. 10 mg/kg (60 mg/m^2)
  Cmax: 0.018 µg/mL
[2]; male, Sprague-Dawley, rat, po, 10 mg/kg, First Study, rat p.o. 10 mg/kg (60 mg/m^2), read-out: AUC0-t
  AUC(0-t): 0.061 µg·h/mL
[2]; male, Sprague-Dawley, rat, po, 15 mg/kg, Male S-D Rats, Oral (Gavage) 15 mg/kg
  Cmax: 0.013 µg/mL
